In patent US5208344A, “Naphthalenepropionic acid derivatives as anti-inflammatory/antiallergic agents” (American Home Products Corporation, priority 1991, dated 1993):
Structures can show the parent of a compound that is named as a salt.

Assays:
5-lipoxygenase = molecular target: T1, 5-lipoxygenase (Rattus norvegicus, UniProt P12527); experiment: inhibition of 5-HETE synthesis by rat glycogen elicited polymorphonuclear leukocytes; format: cell-based; details: 10 μM, rat PMN, negative = potentiation of 5-HETE synthesis
T1 construct: Peritoneal PMN are obtained from female Wistar rats (150-250 g); endogenous in cells; host or cells: rat glycogen-elicited peritoneal polymorphonuclear leukocytes, intact
T1 sequence (P12527 1-673): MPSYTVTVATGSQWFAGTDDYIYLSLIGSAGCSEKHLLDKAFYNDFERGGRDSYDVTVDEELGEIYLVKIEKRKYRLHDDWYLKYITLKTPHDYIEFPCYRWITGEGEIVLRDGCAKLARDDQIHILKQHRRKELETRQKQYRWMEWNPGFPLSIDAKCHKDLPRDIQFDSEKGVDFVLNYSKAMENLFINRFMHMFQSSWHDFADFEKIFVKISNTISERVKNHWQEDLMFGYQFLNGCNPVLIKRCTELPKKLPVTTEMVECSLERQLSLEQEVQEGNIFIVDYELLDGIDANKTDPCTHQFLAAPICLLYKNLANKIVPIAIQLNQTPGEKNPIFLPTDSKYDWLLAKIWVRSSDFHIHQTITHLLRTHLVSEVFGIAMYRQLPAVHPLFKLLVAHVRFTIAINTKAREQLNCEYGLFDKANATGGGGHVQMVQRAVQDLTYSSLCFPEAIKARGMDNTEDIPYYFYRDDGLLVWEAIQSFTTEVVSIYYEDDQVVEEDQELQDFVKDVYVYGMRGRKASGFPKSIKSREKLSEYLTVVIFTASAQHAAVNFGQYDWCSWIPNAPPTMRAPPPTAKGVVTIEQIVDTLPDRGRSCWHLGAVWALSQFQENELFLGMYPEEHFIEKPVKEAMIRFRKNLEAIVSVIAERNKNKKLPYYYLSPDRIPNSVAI
Method in brief: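 Peritoneal PMN from female Wistar rats given i.p. glycogen 24 h earlier were preincubated with compound for 10 min at 37° C (2×10^7 cells/ml, 10 mM L-cysteine). They were then stimulated 10 min with 10 μM A23187 plus 0.5 μM [14C]arachidonic acid. 5-HETE was separated by TLC and quantified by scintillation.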

cyclooxygenase = experiment: inhibition of synthesis of cyclooxygenase products TxB2 and PGE2 (rat polymorphonuclear leukocytes); format: cell-based; details: 10 μM, rat PMN, negative = potentiation of PGE2 synthesis
Method in brief: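 Glycogen-elicited peritoneal PMN from female Wistar rats, 2×10^7 cells/ml in HBSS with Ca^++, Mg^++ and 10 mM L-cysteine, preincubated with compound 10 min at 37° C. Stimulated 10 min with A23187 (10 μM) plus 0.5 μM [14C] arachidonic acid; TxB2 and PGE2 quantified by TLC, autoradiography and scintillation counting.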

[1] = test system: ovalbumin-induced bronchoconstriction; experiment: inhibition of antigen (ovalbumin)-induced bronchoconstriction in anesthetized guinea pigs; format: in vivo; details: orally administered 4 hours before induction, guinea pig, 240 min
Procedure: The compounds of the invention are tested to measure their in vivo ability to inhibit the bronchoconstriction induced in anesthetized guinea pigs by exogenously administered antigen.
Male Hartley guinea pigs (400-700 gm) are sensitized three weeks prior to antigen (ovalbumin-OA) challenge as follows: each guinea pig is given two intramuscular injections--0.35 ml of Grade V OA, 50 mg/ml, into each hindlimb.
Guinea pigs, fasted overnight but allowed water adlibitum, are anesthetized with 1.2 g/kg of urethane (intraperitoneal). Supplemental does of […] of urethane are administered intraperitoneally as needed. One carotid artery and one jugular vein are cannulated to allow for the monitoring of blood pressure and the administration of drugs, respectively. A duodenal cannula is inserted for intraduodenal dosing studies. The trachea of each animal is cannulated and connected to a Harvard respirator. […] Respiratory overflow pressure is measured from a side arm off the tracheal cannula which is connected via a Gould or Beckman pressure transducer to a suitable strip chart recorder. […]
Test compounds are administered intravenously, perorally, or intraduodenally at appropriate times prior to OA challenge. […] Control experiments are used to determine the effects of solvents on the measured parameters, and test data is corrected for any significant solvent effects.
Bronchoconstriction is assessed as increases in respiratory overflow pressure (cm H2 O). Changes in blood pressure (mm Hg) are also recorded.
Test compound-induced changes in the respiratory overflow pressure are assessed as percent changes from control experiments. […] The net change in overflow pressure is measured 5 minutes after antigen challenge and is calculated as follows. […] The percent change value for the drug treated group versus the control group is calculated as follows: […]

[2] = test system: acute gastroirritation induced by naproxen; experiment: cytoprotective activity against NSAID (naproxen)-induced acute gastroirritation in rats; format: in vivo, rat; details: drug 100 mg/kg peroral 1 hour before naproxen 25 mg/kg
Text: The assay of Example 44 is also used to measure the cytoprotective activity of the compounds against acute gastroirritation induced by a nonsteroidal anti-inflammatory drug (NSAID).

C[C@H](C(=O)O)c1ccc2cc(OCc3ccc4ccccc4n3)ccc2c1 [Example 7, S-(α)-α-Methyl-6-(2-quinolinylmethoxy)-2-naphthaleneacetic acid]
inhibition at 10 µM (5-lipoxygenase; read-out: % Inhibition of 5-LO (as 5-HETE)): 100% | % Inhibition of CO (as PGE2) (cyclooxygenase): -17% | ED50 (ovalbumin-induced bronchoconstriction) [1]: 100 mg/kg | % of Rats With Lesions [2]: 87.5% | Comments (protection) [2]: no protection

C[C@H](C(=O)O)c1ccc2cc(OCc3ccc4ccccc4n3)ccc2c1 [Example 16, S-(+)-α-Methyl-6-(2-quinolinylmethoxy)-2-naphthaleneacetic acid, sodium salt]
% Inhibition of 5-LO (as 5-HETE) (5-lipoxygenase; sodium salt): 100% | % Inhibition of CO (as PGE2) (cyclooxygenase; sodium salt): -13% | ED50 (ovalbumin-induced bronchoconstriction) ([1]; sodium salt): 15 mg/kg
